Experimental data from patent US20260159512A1, “BCAT2 INHIBITORS” (AGIOS PHARMACEUTICALS, INC., priority 2021, published 2026).

Columns and labels:
Settings in all cases: average where tested multiple times
[1] = target: T1, hBCAT1 (Homo sapiens, UniProt P54687); experiment: BCAT1 in vitro enzyme inhibition assay (resazurin/diaphorase-coupled fluorescence); format: biochemical
T1 sequence (P54687 1-386): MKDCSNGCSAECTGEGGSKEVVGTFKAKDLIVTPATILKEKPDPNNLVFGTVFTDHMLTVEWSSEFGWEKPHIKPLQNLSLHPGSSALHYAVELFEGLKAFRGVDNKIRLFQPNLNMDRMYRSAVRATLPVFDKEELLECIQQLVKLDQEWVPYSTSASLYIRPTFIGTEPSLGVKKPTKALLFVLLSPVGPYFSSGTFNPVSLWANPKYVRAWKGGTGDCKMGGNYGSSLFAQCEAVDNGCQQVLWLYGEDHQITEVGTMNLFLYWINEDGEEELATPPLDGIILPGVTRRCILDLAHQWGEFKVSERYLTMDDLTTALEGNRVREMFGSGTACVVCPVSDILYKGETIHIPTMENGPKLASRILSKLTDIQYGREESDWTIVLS
Procedure, shortened: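 Ten-point, 3-fold compound series (top final 100 μM, delivered 1:50 from 50× DMSO stocks) tested against hBCAT1. Inhibition detected via diaphorase-coupled resazurin fluorescence, duplicate wells, with values from repeated runs averaged.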

[2] = target: T2, BCAT2 (Homo sapiens, UniProt O15382); experiment: BCAT2 in vitro enzyme inhibition assay (resazurin/diaphorase-coupled fluorescence); format: biochemical
T2 sequence (O15382 28-392): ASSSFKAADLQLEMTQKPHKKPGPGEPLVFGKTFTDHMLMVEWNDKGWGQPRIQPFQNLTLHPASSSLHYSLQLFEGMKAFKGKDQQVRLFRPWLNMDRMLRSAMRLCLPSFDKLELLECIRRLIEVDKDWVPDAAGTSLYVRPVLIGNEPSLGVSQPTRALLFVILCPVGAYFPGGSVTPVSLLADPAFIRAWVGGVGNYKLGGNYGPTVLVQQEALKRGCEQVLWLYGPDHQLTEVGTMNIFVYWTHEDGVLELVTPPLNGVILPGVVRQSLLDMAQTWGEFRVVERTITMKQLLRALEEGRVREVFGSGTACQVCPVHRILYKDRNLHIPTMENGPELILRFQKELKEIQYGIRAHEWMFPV
Procedure, shortened: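 Coupled fluorescence readout: glutamate formed from L-leucine/α-ketoglutarate transamination drives GDH/NAD/diaphorase reduction of resazurin (Ex 540/Em 590). Human BCAT2 was first exposed 1 h at room temperature to compound, top final 100 μM in 3-fold, 10-point series; substrate reaction ran 1 h before SDS quench, in technical duplicate with DMSO max and enzyme-free min controls.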

[3] = target: T2, BCAT2; experiment: BCAT2 in vitro cell inhibition using engineered A549 cells (KMV cell assay, 13C6-KMV by LC-MS/MS); format: cell-based; design: The result was an engineered A549 cell line that expressed endogenous BCAT2; endogenous in cells; host or cells: A549 cells with MUT and BCAT1 knocked out by CRISPR/CAS9; key to BCAT2 Cell Inhibition: A: less than or equal to 0.100 μM; B: greater than 0.100 and less than or equal to 0.500 μM; C: greater than 0.500 and less than or equal to 1.000 μM; d: greater than 1.000 μM; E: no fit

Row | IC50 [1] [µM] | IC50 [2] [µM] | IC50 [3] [µM] | BCAT2 Cell Inhibition [3] | SMILES
1 | < 0.5 | ≤ 0.1 | 0.1 to 0.5 |  | CC(C)C(O)c1nc2cnc(-c3nc[nH]n3)cc2n1[C@@H]1CCC[C@H](NC(=O)c2ncc(Cl)s2)C1 (single isomer, unassigned) [Example 183]
2 | < 0.5 | ≤ 0.1 | ≤ 0.1 |  | CC(C)Cc1nc2cnc(-c3ccccn3)cc2n1[C@@H]1C[C@@H](O)C[C@H](NC(=O)c2ncc(Cl)s2)C1 (single isomer, unassigned) [Example 214]
3 | < 0.5 | ≤ 0.1 | ≤ 0.1 |  | CO[C@H]1C[C@H](NC(=O)c2ncc(Cl)s2)C[C@H](n2c(-c3ccccc3F)nc3cnc(-c4nc[nH]n4)cc32)C1 (single isomer, unassigned) [Example 218]
4 | < 0.5 | ≤ 0.1 | 0.1 to 0.5 |  | CC1(O)[C@@H](NC(=O)c2ncc(Cl)s2)CCC[C@H]1n1c(-c2ccccc2F)nc2cnc(-c3nc[nH]n3)cc21 (single isomer, unassigned) [Example 233]
5 | < 0.5 | ≤ 0.1 | ≤ 0.1 |  | O=C(N[C@H]1C[C@H](O)C[C@@H](n2c(-c3ccccc3F)nc3cnc(-c4ccn[nH]4)cc32)C1)c1ncc(Cl)s1 (single isomer, unassigned) [Example 258]
6 | 1 to 5 | ≤ 0.1 | 0.5 to 1 |  | CNC(=O)c1cc2nc(CC(C)C)n([C@@H]3CCC[C@H](NC(=O)c4ncc(Cl)s4)[C@H]3O)c2cn1 (single isomer, unassigned) [Example 280]
7 | < 0.5 | ≤ 0.1 | ≤ 0.1 |  | CC(C)Cc1nc2cnc(-n3nccn3)cc2n1[C@@H]1C[C@@H](O)C[C@H](NC(=O)c2ccc(Cl)s2)C1 (single isomer, unassigned) [Example 395]
8 | 0.5 to 1 | ≤ 0.1 | 0.1 to 0.5 |  | CO[C@H]1C[C@H](NC(=O)c2ncc(Cl)s2)C[C@H](n2c(CC(C)C)nc3cnc(-c4ncc(C)o4)cc32)C1 (single isomer, unassigned) [Example 427]
9 | < 0.5 | ≤ 0.1 | ≤ 0.1 |  | CO[C@H]1C[C@H](NC(=O)c2ccc(Cl)s2)C[C@H](n2c(CC(C)C)nc3cnc(-c4ncccn4)cc32)C1 (single isomer, unassigned) [Example 437]
10 | < 0.5 | ≤ 0.1 | ≤ 0.1 |  | CO[C@@H]1C[C@H](NC(=O)c2ncc(Cl)s2)C[C@H](n2c(CC(C)C)nc3cnc(-n4nccn4)cc32)C1 (single isomer, unassigned) [Example 439]
11 | 1 to 5 | ≤ 0.1 | 0.1 to 0.5 |  | CO[C@H]1C[C@H](NC(=O)c2ncc(Cl)s2)C[C@H](n2c(CC(C)(C)C)nc3cnc(-c4ccccn4)cc32)C1 (single isomer, unassigned) [Example 442]
12 | < 0.5 | ≤ 0.1 | 0.1 to 0.5 |  | N#CC1CC(NC(=O)c2ncc(Cl)s2)CC(n2c(-c3ccccc3F)nc3cnc(-c4nc[nH]n4)cc32)C1 (single isomer, unassigned) [Example 451, 5-chloro-N-(3-cyano-5-(2-(2-fluorophenyl)-6-(1H-1,2,4-triazol-3-yl)-1H-imidazo[4,5-c]pyridin-1-yl)cyclohexyl)thiazole-2-carboxamide]
13 | < 0.5 | ≤ 0.1 | 0.1 to 0.5 |  | NC1CC(NC(=O)c2ncc(Cl)s2)CC(n2c(-c3ccccc3F)nc3cnc(-c4nc[nH]n4)cc32)C1 (single isomer, unassigned) [Example 455, N-(3-amino-5-(2-(2-fluorophenyl)-6-(1H-1,2,4-triazol-3-yl)-1H-imidazo[4,5-c]pyridin-1-yl)cyclohexyl)-5-chlorothiazole-2-carboxamide]
14 | 0.5 to 1 | ≤ 0.1 | 0.5 to 1 |  | CC(C)Cc1nc2cnc(-c3ccn(C(F)F)n3)cc2n1[C@@H]1CC(O)C[C@H](NC(=O)c2ncc(Cl)s2)C1 (stereo in doubt) [Example 213, 5-chloro-N-((1R,3S,5R)-3-(6-(1-(difluoromethyl)-1H-pyrazol-3-yl)-2-isobutyl-1H-imidazo[4,5-c]pyridin-1-yl)-5-hydroxycyclohexyl)thiazole-2-carboxamide]
15 | < 0.5 | ≤ 0.1 | 0.1 to 0.5 |  | CC(C)Cc1nc2cnc(-c3cccc(F)n3)cc2n1[C@H]1C[C@H](O)C[C@@H](NC(=O)c2ncc(Cl)s2)C1 (stereo in doubt) [Example 385, 5-chloro-N-((1S,3R,5R)-3-(6-(6-fluoropyridin-2-yl)-2-isobutyl-1H-imidazo[4,5-c]pyridin-1-yl)-5-hydroxycyclohexyl)thiazole-2-carboxamide]
16 | 1 to 5 | > 1 |  | E | CC(C)Cc1nc2cnc(-c3ncccn3)cc2n1[C@@H]1C[C@@H](O)C[C@H](NC(=O)c2ncc(Cl)s2)C1 (stereo in doubt) [Example 397, 5-chloro-N-((1R,3S,5S)-3-hydroxy-5-(2-isobutyl-6-(pyrimidin-2-yl)-1H-imidazo[4,5-c]pyridin-1-yl)cyclohexyl)thiazole-2-carboxamide]
17 | < 0.5 | ≤ 0.1 | ≤ 0.1 |  | CO[C@@H]1C[C@@H](NC(=O)c2ccc(Cl)s2)C[C@@H](n2c(-c3ccccc3F)nc3cnc(-c4nc[nH]n4)cc32)C1 (stereo in doubt) [Example 412, 5-chloro-N-((1S,3R,5R)-3-(2-(2-fluorophenyl)-6-(1H-1,2,4-triazol-3-yl)-1H-imidazo[4,5-c]pyridin-1-yl)-5-methoxycyclohexyl)thiophene-2-carboxamide]
18 | < 0.5 | ≤ 0.1 | ≤ 0.1 |  | CO[C@@H]1C[C@@H](NC(=O)c2ncc(Cl)s2)C[C@@H](n2c(CC(C)C)nc3cnc(-c4nc[nH]n4)cc32)C1 (stereo in doubt) [Example 414, 5-chloro-N-((1S,3R,5R)-3-(2-isobutyl-6-(1H-1,2,4-triazol-3-yl)-1H-imidazo[4,5-c]pyridin-1-yl)-5-methoxycyclohexyl)thiazole-2-carboxamide]
19 | 1 to 5 | ≤ 0.1 | ≤ 0.1 |  | CO[C@@H]1C[C@@H](NC(=O)c2ncc(Cl)s2)C[C@@H](n2c(-c3ccccc3F)nc3cnc(-n4cncn4)cc32)C1 (stereo in doubt) [Example 416, 5-chloro-N-((1S,3R,5R)-3-(2-(2-fluorophenyl)-6-(1H-1,2,4-triazol-1-yl)-1H-imidazo[4,5-c]pyridin-1-yl)-5-methoxycyclohexyl)thiazole-2-carboxamide]
20 | < 0.5 | ≤ 0.1 | ≤ 0.1 |  | CO[C@H]1C[C@@H](NC(=O)c2ncc(Cl)s2)C[C@@H](n2c(-c3ccccc3F)nc3cnc(-c4nc[nH]n4)cc32)C1 (stereo in doubt) [Example 420, 5-chloro-N-((1S,3R,5S)-3-(2-(2-fluorophenyl)-6-(1H-1,2,4-triazol-3-yl)-1H-imidazo[4,5-c]pyridin-1-yl)-5-methoxycyclohexyl)thiazole-2-carboxamide]
21 | < 0.5 | ≤ 0.1 | ≤ 0.1 |  | CO[C@@H]1C[C@@H](NC(=O)c2ncc(Cl)s2)C[C@@H](n2c(-c3ccccc3F)nc3cnc(-n4nccn4)cc32)C1 (stereo in doubt) [Example 424, 5-chloro-N-((1S,3R,5R)-3-(2-(2-fluorophenyl)-6-(2H-1,2,3-triazol-2-yl)-1H-imidazo[4,5-c]pyridin-1-yl)-5-methoxycyclohexyl)thiazole-2-carboxamide]

Row | SMILES | IC50 [1] [µM] | IC50 [2] [µM] | IC50 [3] [µM] | BCAT2 Cell Inhibition [3]
22 | O=C(N[C@H]1C[C@H](O)C[C@@H](n2c(-c3ccccc3F)nc3cnc(-c4ccccn4)cc32)C1)c1ncc(Cl)s1 (single isomer, unassigned) [Example 252] | < 0.5 | ≤ 0.1 | ≤ 0.1 | 
